From US9090582B2, “Highly pure pentamycin” (Biolotus Biotechnology AG, priority 2008, dated 2015)

Assay type: physicochemical
Protocol: The stability of more than 95% pure polymorph A on exposure to air and heat is compared to the stability of amorphous pentamycin (containing more than 95% pure pentamycin) as follows:
Amorphous pentamycin is prepared by precipitation from a solution of more than 95% pure pentamycin in dimethylsulfoxide by adding acetonitrile, followed by filtering and drying the precipitate.
More than 95% pure polymorph A of pentamycin is prepared by crystallization from a solution of more than 95% pure pentamycin in dimethylsulfoxide by adding ethyl acetate, followed by filtering and drying the precipitate.
A sample of the thus obtained amorphous pentamycin and a sample of the thus obtained polymorph A are incubated in an open vessel about six days at 60° C. and additionally 2 weeks at 40° C. The process of degradation is monitored by HPLC, measuring the decrease of the purity relative to the inital state at zero time (t0) set on 100%. After the incubation the amount of degradation of amorphous pentamycin is 11% whereas the amount of degradation of polymorph A is only 1%.

| Compound | amount of degradation (decrease of the purity relative to the initial state at zero time t0 set on 100%) [%] |
| --- | --- |
| CCCCC[C@@H](O)[C@H]1C(=O)O[C@H](C)[C@@H](O)/C=C/C=C/C=C/C=C/C=C(\C)[C@@H](O)[C@H](O)[C@H](O)C[C@H](O)C[C@H](O)C[C@H](O)C[C@H](O)C[C@@H]1O [amorphous pentamycin, pentamycin] | 11 |
| CCCCC[C@@H](O)[C@H]1C(=O)O[C@H](C)[C@@H](O)/C=C/C=C/C=C/C=C/C=C(\C)[C@@H](O)[C@H](O)[C@H](O)C[C@H](O)C[C@H](O)C[C@H](O)C[C@H](O)C[C@@H]1O [polymorph A, pentamycin] | 1 |
